Assay results: patent publication US20260041649A1, “ANTI-INFLAMMATORY AGENT” (WATANABE OYSTER LABORATORY, CO., LTD., priority 2023, published 2026)

What was measured:
[1] = test system: mouse macrophage RAW264.7 cells; test: Measurement of cytokine production (ELISA); format: cell-based; settings: 5 hours
Protocol: RAW264.7 cells (1×10^5/ml per well in a 24-well plate) were cultured for 3 days in a DMEM culture medium without DHMBA until they reached subconfluence. After that, the cell culture was continued for another 5 hours in the control group (1% ethanol; DHMBA 0 μM as final concentration) and the DHMBA-treated group (0.1, 1, 10, 100, or 1000 μM) with or without LPS (100 ng/ml) in the cell culture medium. After the culture, the culture medium was collected, and the cytokine concentrations of TNF-α (FIG. 7A), IL-6 (FIG. 7B), […] (FIG. 7C), and PGE2 (FIG. 7D) in the culture medium were measured using an ELISA Kit. Data are presented as the mean±SD from a total of 8 wells in two plates using different cell preparations. *: Significant difference (P<0.001) versus the controls without DHMBA and LPS (white bars). #: Significant difference (P<0.001) versus the controls with LPS but without DHMBA. Statistical analysis was performed using 1-way ANOVA with Tukey-Kramer post-test.
RAW264.7 cells (1×10^5/ml per well) were cultured in a DMEM culture medium containing 10% FBS and 1% P/S using a 24-well plate for 3 days until they reached subconfluence. The cells were then cultured for another 5 hours in the control group (1% ethanol; DHMBA 0 μM as final concentration) and in the DHMBA-treated group (0.1, 1, 10, 100, or 1000 μM) with or without LPS (100 ng/ml). After the culture, the culture media were collected to measure cytokines. Then, the cells were detached from each culture dish to measure the cell number by the method described in “Cell count”. The concentrations of TNF-α, IL-6, IL-⊕, and PGE2 in the culture medium were measured using ELISA kits. For the measurement, kits for TNF-α (cat. no. BM), KHC301) and IL-16 (cat. no. BMS6002) were obtained from ThermoFisher Scientific (Waltham, MA, USA), and kits for IL-6 (cat. no. 583371) and PGE2 (cat. no. 514010) were purchased from Cayman Chemical (Ann Arbor, MI, USA). The amount of each cytokine produced was expressed as pictograms (pg) secreted into the culture medium (ml).

[2] = test system: mouse macrophage RAW264.7 cells; test: Cell proliferation of RAW264.7 cells (cell count); format: cell-based; settings: DHMBA 1, 10, 100 or 1000 μM, 1 to 4 days
Protocol: FIG. 2 is an explanatory diagram describing that the marine factor 3,5-dihydroxy-4-methoxybenzyl alcohol (DHMBA) suppresses the proliferation of mouse macrophage RAW264.7 cells. RAW264.7 cells (1×10^5 cells/ml per well in a 24-well plate) were cultured in a DMEM culture medium containing 10% FBS (fetal bovine serum), 1% P/S (penicillin/streptomycin), and 1% fungizone in a control group (1% ethanol; 0 μM DHMBA as final concentration) and in a DHMBA-treated group (0.1, 1, 10, 100, or 1000 μM) for 1 day (panel A), 2 days (B), 3 days (C), or 4 days (D). After the culture, the number of cells attached to the dish was counted. Data are presented as the mean±SD (standard deviation) from a total of 8 wells in 2 plates using different cell preparations. *: Significant difference (p<0.001) between the control group (gray bars) and the DHMBA-treated group. Statistical analysis was performed using 1-way ANOVA with Tukey-Kramer post-test.
After the culture, to detach the cells from each well, a Ca^2+/Mg^2+ free PBS solution with 0.05% trypsin/EDTA was added to the culture dish (0.1 ml per well) and incubated at 37° C. for 2 min. […]
The number of viable cells was counted under a microscope (Olympus MTV-3) using a hemocytometer (Sigma-Aldrich) and a cell counter (H-102P, Line Seiki Co., Ltd., Tokyo, Japan). […]

[3] = LPS 100 ng/ml, DHMBA 1, 10, 100 or 1000 μM

COc1c(O)cc(CO)cc1O [DHMBA, 3,5-dihydroxy-4-methoxybenzyl alcohol]
LPS-increased production of IL-1β [1, 3]: suppressed | LPS-increased production of IL-6 [1, 3]: suppressed | LPS-increased production of PGE2 [1, 3]: suppressed | LPS-increased production of TNF-α [1, 3]: suppressed | production of IL-6 ([1]; absence of LPS, DHMBA 100 or 1000 μM): suppressed | proliferation of RAW264.7 cells (number of cells attached to the dish) [2]: inhibited
